Assays:
[1] = system: MGL (rat brain homogenate); test: 2-AG accumulation assay in rat brain homogenate; format: biochemical; conditions: compound 1 μM, percent of vehicle 2-AG accumulation
Procedure: After a 15-min incubation time at 37° C., CaCl2 (final concentration=10 mM) was added and then incubated for 15 min at 37° C. in a total volume of 5 mL. The reactions were stopped with 6 mL organic solvent extraction solution of 2:1 chloroform/methanol. Accumulated 2-AG in the organic phase was measured by a HPLC/MS method, according to the following equation: percent vehicle=(2-AG accumulation in the presence of compound/2-AG accumulation in vehicle)×100.

[2] = target: T1, purified wild type MGL (wt-MGLL 6H-11-313) (Homo sapiens, UniProt Q99685); test: MGL enzyme activity assay (4MU-B cleavage), wild type MGL; format: biochemical; conditions: wild type MGL 5 nM, 4MU-B 10 μM, 37° C.; read-out: MGL wild type inh IC50
T1 construct: purified wild type MGL (wt-MGLL 6H-11-313)
T1 sequence (Q99685 1-303): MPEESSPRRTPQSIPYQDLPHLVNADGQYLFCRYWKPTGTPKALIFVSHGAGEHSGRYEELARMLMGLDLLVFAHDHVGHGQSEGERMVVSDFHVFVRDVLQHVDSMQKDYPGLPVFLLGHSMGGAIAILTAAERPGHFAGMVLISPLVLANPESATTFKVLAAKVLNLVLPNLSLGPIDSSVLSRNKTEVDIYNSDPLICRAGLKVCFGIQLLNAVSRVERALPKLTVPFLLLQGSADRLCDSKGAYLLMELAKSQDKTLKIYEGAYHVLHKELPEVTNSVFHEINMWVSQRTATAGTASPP
Procedure: All rate-based assays were performed in black 384-well polypropylene PCR microplates (Abgene) in a total volume of 30 μL. Substrate 4-methylumbelliferyl butyrate (4MU-B; Sigma) and either purified mutant MGL (mut-MGLL 11-313 L179S L186S) or purified wild type MGL (wt-MGLL 6H-11-313) were diluted separately into 20 mM PIPES buffer (pH=7.0), containing 150 mM NaCl and 0.001% Tween 20. Compounds of Formula (I) were pre-dispensed (50 nL) into the assay plate using a Cartesian Hummingbird prior to adding 4MU-B (25 μL of 1.2× solution to a final concentration of 10 μM) followed by enzyme (5 μL of a 6× solution to a final concentration of 5 nM) to initiate the reaction. Final compound concentrations ranged from 17 to 0.0003 μM. The fluorescence change due to 4MU-B cleavage was monitored with excitation and emission wavelengths of 335 and 440 nm, respectively, and a bandwidth of 10 nm (Safire^2, Tecan) at 37° C. for 5 min.
The IC50 values for the following compounds were determined using Microsoft Office Excel from a fit of the equation to the concentration-response plot of the fractional activity as a function of inhibitor concentration.

| Compound | IC50 [2] [nM] | Rat Brain 2AG % VehCntrl (%) @1 μM [1] [%] |
| --- | --- | --- |
| Cc1c(C(=O)N2CC(N[C@H]3CCN(C(=O)c4ccccc4)C3)C2)sc2cc(F)ccc12 [Cpd 86, (3S)-N-{1-[(6-Fluoro-3-methyl-1-benzothiophen-2-yl)carbonyl]azetidin-3-yl}-1-(phenylcarbonyl)pyrrolidin-3-amine] | 298 | – |
| O=C(c1ccc2nc(-c3ccccc3)sc2c1)N1CC(N[C@H]2CCN(C(=O)c3ccccc3)C2)C1 [Cpd 157, (3S)-N-{1-[(2-Phenyl-1,3-benzothiazol-6-yl)carbonyl]azetidin-3-yl}-1-(phenylcarbonyl)pyrrolidin-3-amine] | 211 | – |
| Cn1nc(-c2cccc(F)c2)c2cc(C(=O)N3CC(N[C@H]4CCN(C(=O)c5cscn5)C4)C3)ccc21 [Cpd 200, (3S)-N-(1-{[3-(3-Fluorophenyl)-1-methyl-1H-indazol-5-yl]carbonyl}azetidin-3-yl)-1-(1,3-thiazol-4-ylcarbonyl)pyrrolidin-3-amine] | 843 | – |
| O=C(c1cc2ccc(Br)cc2s1)N1CC(N[C@H]2CCN(C(=O)c3nccs3)C2)C1 [Cpd 95, (3S)-N-{1-[(6-Bromo-1-benzothiophen-2-yl)carbonyl]azetidin-3-yl}-1-(1,3-thiazol-2-ylcarbonyl)pyrrolidin-3-amine] | 410 | – |
| Cn1nc(-c2ccc(F)cc2)c2cc(C(=O)N3CC(N[C@H]4CCN(C(=O)c5nccs5)C4)C3)ccc21 [Cpd 209, (3S)-N-(1-{[3-(4-Fluorophenyl)-1-methyl-1H-indazol-5-yl]carbonyl}azetidin-3-yl)-1-(1,3-thiazol-2-ylcarbonyl)pyrrolidin-3-amine] | 279 | – |
| O=C(c1cc2cc(Br)ccc2s1)N1CC(N[C@H]2CCN(C(=O)c3nccs3)C2)C1 [Cpd 97, (3S)-N-{1-[(5-Bromo-1-benzothiophen-2-yl)carbonyl]azetidin-3-yl}-1-(1,3-thiazol-2-ylcarbonyl)pyrrolidin-3-amine] | 133 | – |
| O=C(c1ccc2c(-c3ccccc3)ncnc2c1)N1CC(N[C@H]2CCN(C(=O)c3cscn3)C2)C1 [Cpd 112, (3S)-N-{1-[(4-Phenylquinazolin-7-yl)carbonyl]azetidin-3-yl}-1-(1,3-thiazol-4-ylcarbonyl)pyrrolidin-3-amine] | 1660 | – |
| O=C(c1ccc2nc(-c3ccccc3)sc2c1)N1CC(N[C@H]2CCN(C(=O)c3nccs3)C2)C1 [Cpd 133, (3S)-N-{1-[(2-Phenyl-1,3-benzothiazol-6-yl)carbonyl]azetidin-3-yl}-1-(1,3-thiazol-2-ylcarbonyl)pyrrolidin-3-amine] | 145 | – |
| Cc1nc(-c2ccc(F)cc2)sc1C(=O)N1CC(N[C@H]2CCN(C(=O)c3nccs3)C2)C1 [Cpd 135, (3S)-N-(1-{[2-(4-Fluorophenyl)-4-methyl-1,3-thiazol-5-yl]carbonyl}azetidin-3-yl)-1-(1,3-thiazol-2-ylcarbonyl)pyrrolidin-3-amine] | 1130 | – |
| O=C(c1ccc2c(-c3ccc(F)cc3)c[nH]c2c1)N1CC(N[C@H]2CCN(C(=O)c3cscn3)C2)C1 [Cpd 190, (3S)-N-(1-{[3-(4-Fluorophenyl)-1H-indol-6-yl]carbonyl}azetidin-3-yl)-1-(1,3-thiazol-4-ylcarbonyl)pyrrolidin-3-amine] | 114 | – |
| Cc1ccc2sc(C(=O)N3CC(N[C@H]4CCN(C(=O)c5cscn5)C4)C3)c(C(F)(F)F)c2c1 [Cpd 184, (3S)-N-(1-{[5-Methyl-3-(trifluoromethyl)-1-benzothiophen-2-yl]carbonyl}azetidin-3-yl)-1-(1,3-thiazol-4-ylcarbonyl)pyrrolidin-3-amine] | 205 | – |
| Cn1nc(-c2ccccc2)c2cc(C(=O)N3CC(N[C@H]4CCN(C(=O)c5ccccc5)C4)C3)ccc21 [Cpd 197, (3S)-N-{1-[(1-Methyl-3-phenyl-1H-indazol-5-yl)carbonyl]azetidin-3-yl}-1-(phenylcarbonyl)pyrrolidin-3-amine] | 199 | – |
| O=C(c1ccccc1)N1CC[C@H](NC2CN(C(=O)c3sc4cc(Cl)ccc4c3C(F)(F)F)C2)C1 [Cpd 182, (3S)-N-(1-{[6-Chloro-3-(trifluoromethyl)-1-benzothiophen-2-yl]carbonyl}azetidin-3-yl)-1-(phenylcarbonyl)pyrrolidin-3-amine] | 217 | – |
| Cn1nc(-c2ccc(F)cc2)c2cc(C(=O)N3CC(N[C@H]4CCN(C(=O)c5ccccc5)C4)C3)ccc21 [Cpd 211, (3S)-N-(1-{[3-(4-Fluorophenyl)-1-methyl-1H-indazol-5-yl]carbonyl}azetidin-3-yl)-1-(phenylcarbonyl)pyrrolidin-3-amine] | 943 | – |
| O=C(c1cscn1)N1CC[C@H](NC2CN(C(=O)c3cc4cc(Br)ccc4s3)C2)C1 [Cpd 98, (3S)-N-{1-[(5-Bromo-1-benzothiophen-2-yl)carbonyl]azetidin-3-yl}-1-(1,3-thiazol-4-ylcarbonyl)pyrrolidin-3-amine] | 3100 | – |
| O=C(c1ccc2c(-c3ccccc3)ncnc2c1)N1CC(N[C@H]2CCN(C(=O)c3nccs3)C2)C1 [Cpd 110, (3S)-N-{1-[(4-Phenylquinazolin-7-yl)carbonyl]azetidin-3-yl}-1-(1,3-thiazol-2-ylcarbonyl)pyrrolidin-3-amine] | 311 | – |
| O=C(c1ccccc1)N1CC[C@H](NC2CN(C(=O)c3sc4cc(C(F)(F)F)ccc4c3C3CC3)C2)C1 [Cpd 75, (3S)-N-(1-{[3-Cyclopropyl-6-(trifluoromethyl)-1-benzothiophen-2-yl]carbonyl}azetidin-3-yl)-1-(phenylcarbonyl)pyrrolidin-3-amine] | 210 | – |
| O=C(c1ccccc1)N1CC[C@H](NC2CN(C(=O)c3sc4cc(C(F)(F)F)ccc4c3F)C2)C1 [Cpd 89, (3S)-N-(1-{[3-Fluoro-6-(trifluoromethyl)-1-benzothiophen-2-yl]carbonyl}azetidin-3-yl)-1-(phenylcarbonyl)pyrrolidin-3-amine] | 154 | – |

More lines, main results first:

| IC50 [2] [nM] | Compound | Rat Brain 2AG % VehCntrl (%) @1 μM [1] [%] |
| --- | --- | --- |
| < 5 | O=C(c1ccc(Cc2cccc(C(F)(F)F)c2)cc1)N1CC(N[C@H]2CCN(C(=O)c3cscn3)C2)C1 [Cpd 127, (3S)-1-(1,3-Thiazol-4-ylcarbonyl)-N-[1-({4-[3-(trifluoromethyl)benzyl]phenyl}carbonyl)azetidin-3-yl]pyrrolidin-3-amine] | 618 |
| < 5 | O=C(c1cscn1)N1CC[C@H](NC2CN(C(=O)c3sc4cc(-c5ccccc5)ccc4c3Cl)C2)C1 [Cpd 147, (3S)-N-{1-[(3-Chloro-6-phenyl-1-benzothiophen-2-yl)carbonyl]azetidin-3-yl}-1-(1,3-thiazol-4-ylcarbonyl)pyrrolidin-3-amine] | 506 |
| 1050 | O=C(c1cscn1)N1CC[C@H](NC2CN(C(=O)c3cc4ccc(Br)cc4s3)C2)C1 [Cpd 96, (3S)-N-{1-[(6-Bromo-1-benzothiophen-2-yl)carbonyl]azetidin-3-yl}-1-(1,3-thiazol-4-ylcarbonyl)pyrrolidin-3-amine] | – |
| 281 | O=C(c1ccccc1)N1CC[C@H](NC2CN(C(=O)c3sc4cc(F)ccc4c3C3CCC3)C2)C1 [Cpd 79, (3S)-N-{1-[(3-Cyclobutyl-6-fluoro-1-benzothiophen-2-yl)carbonyl]azetidin-3-yl}-1-(phenylcarbonyl)pyrrolidin-3-amine] | – |
| > 16700 | O=C(c1ccccc1)N1CC[C@H](NC2CN(C(=O)c3cc4cc(Br)ccc4o3)C2)C1 [Cpd 107, (3S)-N-{1-[(5-Bromo-1-benzofuran-2-yl)carbonyl]azetidin-3-yl}-1-(phenylcarbonyl)pyrrolidin-3-amine] | – |
| 165 | Cc1nc(-c2cccc(Cl)c2)sc1C(=O)N1CC(N[C@H]2CCN(C(=O)c3nccs3)C2)C1 [Cpd 136, (3S)-N-(1-{[2-(3-Chlorophenyl)-4-methyl-1,3-thiazol-5-yl]carbonyl}azetidin-3-yl)-1-(1,3-thiazol-2-ylcarbonyl)pyrrolidin-3-amine] | – |
| 482 | O=C(c1ccc2c(cnn2-c2ccccc2)c1)N1CC(N[C@H]2CCN(C(=O)c3ccccc3)C2)C1 [Cpd 156, (3S)-1-(Phenylcarbonyl)-N-{1-[(1-phenyl-1H-indazol-5-yl)carbonyl]azetidin-3-yl}pyrrolidin-3-amine] | – |
| 298 | Cn1nc(-c2ccccc2)c2cc(C(=O)N3CC(N[C@H]4CCN(C(=O)c5cscn5)C4)C3)ccc21 [Cpd 196, (3S)-N-{1-[(1-Methyl-3-phenyl-1H-indazol-5-yl)carbonyl]azetidin-3-yl}-1-(1,3-thiazol-4-ylcarbonyl)pyrrolidin-3-amine] | – |
| 1750 | O=C(c1ccccc1)N1CC[C@H](NC2CN(C(=O)c3cc4cc(-c5ccccc5)ccc4o3)C2)C1 [Cpd 121, (3S)-N-{1-[(5-Phenyl-1-benzofuran-2-yl)carbonyl]azetidin-3-yl}-1-(phenylcarbonyl)pyrrolidin-3-amine] | – |
